Test results published in patent US11452723B2, “Combination dosage form of a mu opioid receptor antagonist and an opioid agent” (THERAVANCE BIOPHARMA R&D IP, LLC, priority 2015, dated 2022).
Where a name gives a salt, the structure may show the parent alone.

Key:
[1] = as described in U.S. Pat. No. 7,943,772; cited from earlier work
[2] = Excipient compatibility study: chemical stability of films at 40° C./88% RH by HPLC; format: physicochemical; settings: T = 0; no coating material (ratio N/A)
Description: The compatibility of axelopran with four compositions of commercial coating materials was studied as a function of ratio of coating material to axelopran. Mixtures of axelopran sulfate and the materials of Table 15 were dried at 40° C. in weighing boats to form films. Chemical stability of the films stored at accelerated conditions of 40° C. and 88% relative humidity for 2 weeks were analyzed by HPLC.

mu opioid receptor = target: T1, mu opioid receptor (Homo sapiens, UniProt P35372); settings: non-cancer pain patients on a stable opioid regimen; cited from earlier work
T1 construct: host or cells: patients (endogenous peripheral/gastrointestinal receptors)
T1 sequence (P35372 whole entry): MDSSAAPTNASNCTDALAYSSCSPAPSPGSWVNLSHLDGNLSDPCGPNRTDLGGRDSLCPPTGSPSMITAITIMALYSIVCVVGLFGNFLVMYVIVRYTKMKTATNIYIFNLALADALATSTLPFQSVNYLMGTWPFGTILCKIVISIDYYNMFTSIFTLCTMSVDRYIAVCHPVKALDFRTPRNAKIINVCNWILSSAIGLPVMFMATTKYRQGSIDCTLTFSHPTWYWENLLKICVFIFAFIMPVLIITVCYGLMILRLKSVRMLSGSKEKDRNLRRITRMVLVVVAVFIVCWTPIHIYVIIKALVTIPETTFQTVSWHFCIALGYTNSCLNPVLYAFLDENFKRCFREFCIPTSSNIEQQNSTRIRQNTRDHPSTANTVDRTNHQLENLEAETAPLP

Row | Compound | stability of solid form (in words) [1] | Axelopran Assay [2] | amelioration of symptoms of opioid induced constipation (in words) (mu opioid receptor)
1 | NC(=O)c1cccc([C@H]2C[C@H]3CC[C@@H](C2)N3CCN(CC2CCCCC2)C(=O)[C@@H](O)CO)c1 [amorphous axelopran] | not sufficiently stable for use in a drug product | – | –
2 | NC(=O)c1cccc([C@H]2C[C@H]3CC[C@@H](C2)N3CCN(CC2CCCCC2)C(=O)[C@@H](O)CO)c1 [axelopran sulfate] | forms a stable crystalline form | – | –
3 | NC(=O)c1cccc([C@H]2C[C@H]3CC[C@@H](C2)N3CCN(CC2CCCCC2)C(=O)[C@@H](O)CO)c1 [axelopran, 3-((1R,3r,5S)-8-(2-((cyclohexylmethyl)((2S)-2,3-dihydroxypropanoyl)amino)ethyl)-8-azabicyclo[3.2.1]octan-3-yl)benzamide] | – | 99.70 % Area | ameliorate the symptoms of OIC in non-cancer pain patients on a stable opioid regimen without compromising analgesia
